Test results from patent publication US8362000B2, “Azetidinyl diamides as monoacylglycerol lipase inhibitors” (Janssen Pharmaceutica NV, priority 2009, dated 2013).
Numbering of substitutions follows the chain as printed. Where two headings read alike, the source gives them in different places.

Columns and labels:
[1] = target: T1, purified wild type MGL (wt-MGLL 6H-11-313) (Homo sapiens, UniProt Q99685)
T1 sequence (Q99685 1-303): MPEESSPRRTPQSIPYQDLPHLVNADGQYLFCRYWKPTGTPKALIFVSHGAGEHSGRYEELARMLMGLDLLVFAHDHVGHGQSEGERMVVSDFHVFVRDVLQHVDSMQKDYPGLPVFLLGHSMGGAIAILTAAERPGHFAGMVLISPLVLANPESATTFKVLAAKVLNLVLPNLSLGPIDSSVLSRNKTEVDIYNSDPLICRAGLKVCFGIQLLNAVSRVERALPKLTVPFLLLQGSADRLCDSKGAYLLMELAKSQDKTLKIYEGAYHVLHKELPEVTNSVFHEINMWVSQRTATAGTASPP

[2] = target: T2, mutant MGL (Homo sapiens, UniProt Q99685, L169S/L176S); test: MGL ThermoFluor assay - mutant; assay type: binding
T2 sequence (Q99685 1-303 L169S/L176S): T1 sequence (Q99685 1-303) with L169S, L176S

[3] = target: T3, MGL (Rattus norvegicus, UniProt Q8R431); test: 2-AG accumulation assay in rat brain homogenate; assay type: biochemical; conditions: rat brain homogenate, 2-AG accumulation as percent of vehicle; for 2-AG accumulation, % of vehicle control at 1 µM: compound 1 μM, read-out: Rat Brain 2AG % VehCntrl (%) @ 1 μM
T3 construct: one g rat brain was homogenized using a Polytron homogenizer; from tissue; host or cells: rat brain homogenate
T3 sequence (Q8R431 1-303): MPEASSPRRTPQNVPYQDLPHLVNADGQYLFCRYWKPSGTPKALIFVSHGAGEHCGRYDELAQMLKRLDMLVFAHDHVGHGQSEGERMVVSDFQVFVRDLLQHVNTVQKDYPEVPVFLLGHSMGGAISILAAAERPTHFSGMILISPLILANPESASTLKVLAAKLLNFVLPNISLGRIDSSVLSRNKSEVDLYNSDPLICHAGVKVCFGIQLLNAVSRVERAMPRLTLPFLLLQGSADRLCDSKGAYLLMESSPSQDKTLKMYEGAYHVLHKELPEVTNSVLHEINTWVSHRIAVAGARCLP

[4] = ThermoFluor, compound concentration measured by qNMR, read-out: MGL mutant ThermoFluor qKd (μM) (using qNMR conc.)
[5] = ThermoFluor thermal stability binding assay, read-out: MGL mutant ThermoFluor Kd
[6] = ThermoFluor concentration-response, read-out: MGL mutant ThermoFluor Kd
[7] = ThermoFluor, compound concentration measured by qNMR, read-out: MGL mutant ThermoFluor qKd (using qNMR conc.)

SMILES | IC50 [1] | Kd [2, 4] | 2-AG accumulation, % of vehicle control at 1 µM [3] | Kd [2, 5] | Kd [2, 6] | Kd ([2]; compound concentration measured by qNMR, read-out: MGL mutant ThermoFluor qKd (using qNMR conc.)) | Kd [2, 7] | 2-AG accumulation, % of vehicle control at 10 µM ([3]; compound 10 μM, read-out: Rat Brain 2AG % VehCntrl (%) @ 10 μM)
O=C(c1ccoc1)N1CCN(C2CN(C(=O)c3ccc(-c4ccccc4)cc3)C2)CC1 [Cpd 1140] | 27 nM |  | 200% | 0.112 µM |  |  |  | 
O=C(c1ccc(-c2cccc(C(F)(F)F)c2)cc1)N1CCN(C2CN(C(=O)c3ccc[nH]3)C2)CC1 [Cpd 1166, 1-[1-(1H-Pyrrol-2-ylcarbonyl)azetidin-3-yl]-4-{[3′-(trifluoromethyl)biphenyl-4-yl]carbonyl}piperazine] | 52 nM |  | 176% |  | 0.01 µM |  |  | 
O=C(c1nccs1)N1CCN(C2CN(C(=O)c3cccc4oc(-c5ccccc5)nc34)C2)CC1 [Cpd 1190] | 99 nM |  | 126% | 0.008 µM |  |  |  | 
Cc1ccc2sc(C(=O)N3CC(N4CCN(C(=O)c5nccs5)CC4)C3)c(C(F)(F)F)c2c1 [Cpd 691, 1-(1-{[5-Methyl-3-(trifluoromethyl)-1-benzothiophen-2-yl]carbonyl}azetidin-3-yl)-4-(1,3-thiazol-2-ylcarbonyl)piperazine] | 46 nM |  | 840% |  | 0.004 µM |  |  | 
Cc1c(C(=O)N2CC(N3CCN(C(=O)c4ccccc4)CC3)C2)sc2cc(C(F)(F)F)ccc12 [Cpd 505] | 39 nM |  | 236% |  | 0.01 µM |  |  | 
Cc1c(Cc2ccc(C(F)(F)F)cc2)cccc1C(=O)N1CC(N2CCN(C(=O)c3cscn3)CC2)C1 [Cpd 1009] | 65 nM |  | 706% |  | 0.589 µM |  |  | 
O=C(c1ccccc1)N1CCN(C2CN(C(=O)c3ccc(S(=O)(=O)c4cccc(C(F)(F)F)c4)cc3)C2)CC1 [Cpd 508] | 107 nM |  | 119% |  | 0.162 µM |  |  | 
O=C(c1cccc(-c2ccccc2C(F)(F)F)c1)N1CC(N2CCN(C(=O)c3cscn3)CC2)C1 [Cpd 1185] | 88 nM |  | 241% |  | 1.32 µM |  |  | 
O=C(c1cc(-c2cccc(F)c2)c2[nH]ccc2c1)N1CC(N2CCN(C(=O)c3nccs3)CC2)C1 [Cpd 1183] | 85 nM | 0.067 µM | 549% |  |  |  |  | 
O=C(c1ccc(-c2ccc(F)cc2)cc1)N1CC(N2CCN(C(=O)c3cscn3)CC2)C1 [Cpd 225, 1-{1-[(4′-Fluorobiphenyl-4-yl)carbonyl]azetidin-3-yl}-4-(1,3-thiazol-4-ylcarbonyl)piperazine] | 54.7 nM |  |  | 0.02 µM |  |  |  | 656%
O=C(c1ccns1)N1CC(N2CCN(C(=O)c3cc4cc(C(F)(F)F)ccc4s3)CC2)C1 [Cpd 703, 1-[1-(Isothiazol-5-ylcarbonyl)azetidin-3-yl]-4-{[5-(trifluoromethyl)-1-benzothiophen-2-yl]carbonyl}piperazine] | 88 nM |  | 346% |  | 0.05 µM |  |  | 
O=C(c1nccs1)N1CCN(C2CN(C(=O)c3cccc4oc(-c5ccccc5Cl)nc34)C2)CC1 [Cpd 1173] | 65 nM |  | 133% | 0.007 µM |  |  |  | 
O=C(c1ccccc1)c1ccc(C(=O)N2CC(N3CCN(C(=O)c4nccs4)CC3)C2)cc1 [Cpd 1017] | 35 nM |  | 307% |  | 0.049 µM |  |  | 
O=C(c1cc[nH]c1)N1CC(N2CCN(C(=O)c3cc4cc(C(F)(F)F)ccc4s3)CC2)C1 [Cpd 741, 1-[1-(1H-Pyrrol-3-ylcarbonyl)azetidin-3-yl]-4-{[5-(trifluoromethyl)-1-benzothiophen-2-yl]carbonyl}piperazine] | 298 nM |  | 182% |  | 0.2 µM |  |  | 

Stronger by IC50 [1], values ahead:

IC50 [1] | Kd [2, 4] | 2-AG accumulation, % of vehicle control at 1 µM [3] | Kd [2, 5] | Kd [2, 6] | Kd ([2]; compound concentration measured by qNMR, read-out: MGL mutant ThermoFluor qKd (using qNMR conc.)) | Kd [2, 7] | 2-AG accumulation, % of vehicle control at 10 µM ([3]; compound 10 μM, read-out: Rat Brain 2AG % VehCntrl (%) @ 10 μM) | SMILES
< 5 nM | 0.002 µM | 874% |  |  |  |  |  | O=C(c1ccc2c(ccn2-c2ccc(OC(F)(F)F)cc2)c1)N1CC(N2CCN(C(=O)c3nccs3)CC2)C1 [Cpd 1369]
< 5 nM |  | 834% |  | 0.006 µM |  |  |  | O=C(c1ccc(-c2nc(-c3ccc(Cl)cc3Cl)cs2)cc1)N1CC(N2CCN(C(=O)c3nccs3)CC2)C1 [Cpd 1329]
16 nM |  | 508% |  |  | 0.009 µM |  |  | O=C(c1cc(F)c2c(ccn2-c2ccc(F)cc2)c1)N1CC(N2CCN(C(=O)c3cscn3)CC2)C1 [Cpd 1111]
< 5 nM |  | 475% |  | 0.1 µM |  |  |  | O=C(c1ccc(Oc2ccc(Br)cn2)cc1)N1CC(N2CCN(C(=O)c3nccs3)CC2)C1 [Cpd 877]
< 5 nM |  | 851% |  | 0.003 µM |  | 0.001 µM |  | O=C(c1ccc2c(ccn2-c2ccc(Cl)cn2)c1)N1CC(N2CCN(C(=O)c3nccs3)CC2)C1 [Cpd 1313, 1-(5-Chloropyridin-2-yl)-5-({3-[4-(1,3-thiazol-2-ylcarbonyl)piperazin-1-yl]azetidin-1-yl}carbonyl)-1H-indole]
25 nM |  | 884% |  |  |  | 0.015 µM |  | O=C(c1ccc2c(ccn2-c2ccccn2)c1)N1CC(N2CCN(C(=O)c3nccs3)CC2)C1 [Cpd 1135, 1-Pyridin-2-yl-5-({3-[4-(1,3-thiazol-2-ylcarbonyl)piperazin-1-yl]azetidin-1-yl}carbonyl)-1H-indole]
26 nM |  | 271% |  | 0.018 µM |  |  |  | O=C(c1ccc(-c2ccc(C(F)(F)F)s2)cc1)N1CC(N2CCN(C(=O)c3ccc[nH]3)CC2)C1 [Cpd 1138]
11 nM |  | 484% |  | 0.011 µM |  |  |  | O=C(c1nccs1)N1CCN(C2CN(C(=O)c3sc4cc(-c5ccccc5)ccc4c3C(F)(F)F)C2)CC1 [Cpd 1095, 1-(1-{[6-Phenyl-3-(trifluoromethyl)-1-benzothiophen-2-yl]carbonyl}azetidin-3-yl)-4-(1,3-thiazol-2-ylcarbonyl)piperazine]
7 nM |  | 312% | 0.0067 µM |  |  |  |  | COc1cc(C(=O)N2CC(N3CCN(C(=O)c4cscn4)CC3)C2)ccc1-c1cccc(C(F)(F)F)c1 [Cpd 248, 1-(1-{[2-Methoxy-3′-(trifluoromethyl)biphenyl-4-yl]carbonyl}azetidin-3-yl)-4-(1,3-thiazol-4-ylcarbonyl)piperazine]
< 5 nM |  | 824% |  |  |  | 0.04 µM |  | O=C(c1ccc2cc(-c3ccccc3)[nH]c2c1)N1CC(N2CCN(C(=O)c3nccs3)CC2)C1 [Cpd 1333]
10 nM |  | 178% | 0.024 µM |  |  |  |  | Cc1c(C(=O)N2CC(N3CCN(C(=O)c4ccccc4)CC3)C2)sc2ccc(C(F)(F)F)cc12 [Cpd 504]
< 5 nM |  | 813% |  | 0.01 µM |  |  |  | O=C(c1ccc(-c2ccc(Br)cc2)cc1)N1CC(N2CCN(C(=O)c3nccs3)CC2)C1 [Cpd 168, 1-{1-[(4′-Bromobiphenyl-4-yl)carbonyl]azetidin-3-yl}-4-(1,3-thiazol-2-ylcarbonyl)piperazine]
21 nM |  | 437% |  | 0.029 µM |  |  |  | O=C(c1cc2cc(C(F)(F)F)ccc2s1)N1CCN(C2CN(C(=O)c3nccs3)C2)CC1 [Cpd 676, 1-[1-(1,3-Thiazol-2-ylcarbonyl)azetidin-3-yl]-4-{[5-(trifluoromethyl)-1-benzothiophen-2-yl]carbonyl}piperazine]
< 5 nM |  | 697% |  | 0.012 µM |  |  |  | O=C(c1ccc2c(c1)CCN2Cc1ccc(C(F)(F)F)cc1)N1CC(N2CCN(C(=O)c3nccs3)CC2)C1 [Cpd 882]
< 5 nM |  | 297% |  | 0.004 µM |  |  |  | O=C(c1nccs1)N1CCN(C2CN(C(=O)c3ccc(-c4ccccc4)cc3Cl)C2)CC1 [Cpd 1323]
9 nM | 0.006 µM | 576% |  |  |  |  |  | O=C(c1cscn1)N1CCN(C2CN(C(=O)c3sc4cc(F)c(C(F)(F)F)cc4c3Cl)C2)CC1 [Cpd 659]
7 nM |  | 846% |  | 0.003 µM |  |  |  | O=C(c1nccs1)N1CCN(C2CN(C(=O)c3sc4cc(-c5ccc(C(F)(F)F)cc5)ccc4c3F)C2)CC1 [Cpd 1063]
